The values that follow come from patent US20090123501A1, “INHIBITION OF THE SH2-DOMAIN CONTAINING PROTEIN TYR-PHOSPHATASE, SHP-1, TO ENHANCE VACCINES” (Baylor College of Medicine, priority 2007, published 2009).

Series [1] relates to endogenous SHP-1 protein. Nature of the series: Knock-down of endogenous SHP-1 protein in D2SC/1 cells, western blot with densitometry. Particulars: D2SC/1 cells, 40,000 viral particles/cell. In kind it is cell-based, murine. The protocol: The high titer adenoviral preparation of SHP-1 specific Ad-shRNA#1149 (referred to from this point on as Ad5-SHP-1-shRNA), produced in the Viral Vector Core Laboratory at Baylor College of Medicine, was tested for its ability to knock-down endogenous SHP-1 protein in D2SC/1 cells, a murine dendritic-like cell line. […] A titration of Ad5-SHP-1 shRNA viral particles was performed and SHP-1 protein expression was determined by western blot (FIG. 3). […] This dose was chosen for subsequent studies using mouse bone marrow derived dendritic cells (BMDCs).
FIG. 3 describes the knock-down of endogenous SHP-1 using high titer Ad5-SHP-1 shRNA. SHP-1 protein expression was measured in D2SC/1 cells following infection with Ad5-SHP-1 at varying doses as shown. Protein levels were analyzed by western blot with a SHP-1 specific antibody. As controls, SHP-1 expression is shown for uninfected cells and those infected with the Ad5-scrambled shRNA. The blot was also probed with a calnexin specific antibody as a loading control. Densitometry analysis of the western is shown below as a percentage of SHP-1 expression level relative to cells infected with Ad5-scrambled shRNA.
(A western blot detects proteins with antibodies after separation by electrophoresis.)

Series [2] has as its system BMDCs. Nature of the series: In vivo DC migration out of the footpad, luciferase IVIS imaging. Particulars: 2×10^6 transduced BMDCs injected into footpad. Details: species or system albino C57BL/6 mice. The protocol: To determine if SHP-1 inhibition enhanced DC migration in vivo, BMDCs were prepared as described above but were transduced with an adenovirus expressing a clickbeetle red-shifted luciferase in addition to either Ad5-SHP-1-shRNA or Ad5-scrambled-shRNA. Transduced cells (2×10^6) were injected into the contralateral footpads of tyrosinase-deficient albino C57BL/6 mice (B6(Cg)-Tyr^c-2J/J, Jackson Laboratory). At the specified intervals mice were injected i.p. with 100 μl of 10 mg/mL luciferin and imaged in vivo using IVIS® (Caliper Life Sciences, Hopkinton, Mass.).

Turning to “CACCGGAGCATGACACAGCAGAATACGAATATTCTGCTGTGTCATGCTCC (chemistry not given here) [Ad5-SHP-1-shRNA]”, the “decrease in endogenous SHP-1 protein” value in series [1] came to 95%. The “DCs in the footpad at 24 hours post-injection” value in series [2] was “undetectable in the footpad by 24 hours post injection”. Further, the “time by which DCs are seen to migrate out of the footpad” value in series [2] (post-injection) was at most 2 h.
